Source: US20250215029A1 (Recludix Pharma, Inc., priority 2022, published 2025)

biological target: T1, pY705-STAT3 in PBMC (Homo sapiens, UniProt P40763); experiment: MSD-pSTAT-PBMC Assay (pSTAT3, IL-6 stimulated); format: cell-based; conditions: PBMC, compound 3 hrs, then 10 ng/mL IL-6 for 10 min; Table 115; read-out: STAT3
T1 construct: Cryopreserved Peripheral Blood Mononuclear Cells (PBMC) are from AllCells; host or cells: cryopreserved PBMC
Summary of the method: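 Thawed human PBMC rested overnight in IMDM/10% FBS, then got compound for 3 hrs before a 10 min cytokine pulse: 1 ng/mL IL-4 for pSTAT6, 10 ng/mL IL-6 for pSTAT3. Lysates went to MSD sandwich capture on total STAT6 or STAT3 with phospho-specific detection. IC50 came from background-subtracted, DMSO-normalized signal.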

T1 sequence (P40763 whole entry): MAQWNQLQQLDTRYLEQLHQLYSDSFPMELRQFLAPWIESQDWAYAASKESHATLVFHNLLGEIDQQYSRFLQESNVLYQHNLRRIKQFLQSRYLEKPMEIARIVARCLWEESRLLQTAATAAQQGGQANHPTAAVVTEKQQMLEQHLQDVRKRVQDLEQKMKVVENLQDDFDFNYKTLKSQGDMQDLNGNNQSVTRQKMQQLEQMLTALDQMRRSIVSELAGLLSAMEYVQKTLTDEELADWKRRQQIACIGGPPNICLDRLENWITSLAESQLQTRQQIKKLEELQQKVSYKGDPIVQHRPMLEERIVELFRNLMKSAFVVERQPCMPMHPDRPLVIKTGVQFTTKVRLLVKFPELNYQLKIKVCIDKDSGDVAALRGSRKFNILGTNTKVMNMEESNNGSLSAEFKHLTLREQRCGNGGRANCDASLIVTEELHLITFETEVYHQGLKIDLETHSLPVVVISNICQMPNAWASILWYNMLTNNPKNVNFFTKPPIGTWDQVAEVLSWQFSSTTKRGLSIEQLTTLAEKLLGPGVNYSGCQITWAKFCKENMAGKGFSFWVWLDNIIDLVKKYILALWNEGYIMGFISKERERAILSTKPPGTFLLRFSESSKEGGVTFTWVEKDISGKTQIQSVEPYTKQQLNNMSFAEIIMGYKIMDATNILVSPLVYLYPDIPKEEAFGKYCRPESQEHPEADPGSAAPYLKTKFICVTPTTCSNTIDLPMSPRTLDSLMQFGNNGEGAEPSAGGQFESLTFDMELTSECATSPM

Compared with `C[C@H](NP(=O)(Oc1ccccc1)C(F)c1ccc2sc(C(=O)N[C@H]3CCC[C@H]4CC[C@@H](C(=O)N5CC(c6cnccc6F)C5)N4C3=O)cc2c1)C(=O)OCCC(F)(F)F` (stereo partly drawn) [Compound 983, 3,3,3-trifluoropropyl ((fluoro(2-(((3S,6S,9aS)-3-(3-(4-fluoropyridin-3-yl)azetidine-1-carbonyl)-5-oxooctahydro-1H-pyrrolo[1,2-a]azepin-6-yl)carbamoyl)benzo [b]thiophen-5-yl)methyl)(phenoxy)phosphoryl)-L-alaninate], `CCCOC(=O)[C@H](C)NP(=O)(Oc1ccccc1)[C@@H](F)c1ccc2sc(C(=O)N[C@H]3CCC[C@H]4CC[C@@H](C(=O)N5CC(c6cnccc6F)C5)N4C3=O)cc2c1` (stereo partly drawn) [Compound 994, propyl (((R)-fluoro(2-(((3S,6S,9aS)-3-(3-(4-fluoropyridin-3-yl)azetidine-1-carbonyl)-5-oxooctahydro-1H-pyrrolo[1,2-a]azepin-6-yl)carbamoyl)benzo [b]thiophen-5-yl)methyl)(phenoxy)phosphoryl)-L-alaninate] is higher in IC50: less than 100 nM for the first, 100 to 1000 nM for the second. The first is the more potent here.

Compared with `CCCOC(=O)[C@H](C)NP(=O)(Oc1ccccc1)C(F)c1ccc2sc(C(=O)N[C@H]3CCC[C@H]4CC[C@@H](C(=O)N5CC(c6cn(C)ccc6=O)C5)N4C3=O)cc2c1` (stereo partly drawn) [Compound 985, propyl ((fluoro(2-(((3S,6S,9aS)-3-(3-(1-methyl-4-oxo-1,4-dihydropyridin-3-yl)azetidine-1-carbonyl)-5-oxooctahydro-1H-pyrrolo[1,2-a]azepin-6-yl)carbamoyl)benzo [b]thiophen-5-yl)methyl)(phenoxy)phosphoryl)-L-alaninate], `CCCOC(=O)[C@H](C)NP(=O)(Oc1ccccc1)C(F)c1ccc2sc(C(=O)N[C@H]3CCC[C@H]4CC[C@@H](C(=O)N5CC(c6cc(F)ccc6F)C5)N4C3=O)cc2c1` (stereo partly drawn) [Compound 986, propyl (((2-(((3S,6S,9aS)-3-(3-(2,5-difluorophenyl)azetidine-1-carbonyl)-5-oxooctahydro-1H-pyrrolo[1,2-a]azepin-6-yl)carbamoyl)benzo [b]thiophen-5-yl)fluoromethyl) (phenoxy)phosphoryl)-L-alaninate] is lower in IC50: greater than 3000 nM for the first, 1000 to 3000 nM for the second. The second is the more potent here.

First: CCCOC(=O)[C@H](C)NP(=O)(Oc1ccccc1)C(F)c1ccc2sc(C(=O)N[C@H]3CCCC[C@H]4CC[C@@H](C(=O)N5CC(NCCOC)(c6ccccn6)C5)N4C3=O)cc2c1 (stereo partly drawn) [Compound 987, propyl ((fluoro(2-(((3S,6S,10aS)-3-(3-((2-methoxyethyl)amino)-3-(pyridin-2-yl)azetidine-1-carbonyl)-5-oxodecahydropyrrolo [1,2-a]azocin-6-yl)carbamoyl)benzo [b]thiophen-5-yl)methyl)(phenoxy)phosphoryl)-L-alaninate]
Second: CCCOC(=O)[C@H](C)NP(=O)(Oc1ccccc1)C(F)c1ccc2sc(C(=O)N[C@H]3CCCC[C@H]4CC[C@@H](C(=O)N5CC(OCCOC)(c6cccnc6)C5)N4C3=O)cc2c1 (stereo partly drawn) [Compound 995, propyl ((fluoro(2-(((3S,6S,10aS)-3-(3-(2-methoxyethoxy)-3-(pyridin-3-yl)azetidine-1-carbonyl)-5-oxodecahydropyrrolo [1,2-a]azocin-6-yl)carbamoyl)benzo [b]thiophen-5-yl)methyl)(phenoxy)phosphoryl)-L-alaninate]
The IC50 of the first is higher: 100 to 1000 nM for the first, less than 100 nM for the second. The second is the more potent here.

`CCCOC(=O)[C@H](C)NP(=O)(Cc1ccc2sc(C(=O)N[C@H]3CC[C@@H](C)C[C@H]4CC[C@@H](C(=O)N5CC(c6cnccc6F)C5)N4C3=O)cc2c1)Oc1ccccc1` (stereo partly drawn) [Compound 988, propyl (((2-(((3S,6S,9R,10aR)-3-(3-(4-fluoropyridin-3-yl)azetidine-1-carbonyl)-9-methyl-5-oxodecahydropyrrolo [1,2-a]azocin-6-yl)carbamoyl)benzo [b]thiophen-5-yl)methyl)(phenoxy)phosphoryl)-L-alaninate] and `CCCOC(=O)[C@H](C)NP(=O)(Cc1ccc2sc(C(=O)N[C@H]3CC[C@H](C)C[C@H]4CC[C@@H](C(=O)N5CC(c6cnccc6F)C5)N4C3=O)cc2c1)Oc1ccccc1` (stereo partly drawn) [Compound 993, propyl (((2-(((3S,6S,9S,10aR)-3-(3-(4-fluoropyridin-3-yl)azetidine-1-carbonyl)-9-methyl-5-oxodecahydropyrrolo [1,2-a]azocin-6-yl)carbamoyl)benzo [b]thiophen-5-yl)methyl)(phenoxy)phosphoryl)-L-alaninate] cannot be ordered by IC50: less than 100 nM for the first, less than 100 nM for the second.

First: CCCOC(=O)[C@H](C)NP(=O)(Cc1ccc2sc(C(=O)N[C@H]3CCC[C@H]4CC[C@@H](C(=O)N5CC(c6c(OC)ccnc6C(F)F)C5)N4C3=O)cc2c1)Oc1ccccc1 (stereo partly drawn) [Compound 990, propyl (((2-(((3S,6S, 9aS)-3-(3-(2-(difluoromethyl)-4-methoxypyridin-3-yl)azetidine-1-carbonyl)-5-oxooctahydro-1H-pyrrolo[1,2-a]azepin-6-yl)carbamoyl)benzo [b]thiophen-5-yl)methyl)(phenoxy)phosphoryl)-L-alaninate]
Second: CCCOC(=O)[C@H](C)NP(=O)(Cc1ccc2sc(C(=O)N[C@H]3CCC[C@H]4CC[C@@H](C(=O)N5CC(c6cnccc6OC(F)F)C5)N4C3=O)cc2c1)Oc1ccccc1 (stereo partly drawn) [Compound 996, propyl (((2-(((3S,6S,9aS)-3-(3-(4-(difluoromethoxy)pyridin-3-yl)azetidine-1-carbonyl)-5-oxooctahydro-1H-pyrrolo[1,2-a]azepin-6-yl)carbamoyl)benzo [b]thiophen-5-yl)methyl)(phenoxy) )phosphoryl)-L-alaninate]
The IC50 of the first is higher: greater than 3000 nM for the first, 100 to 1000 nM for the second.

`CC(C)(C)C(=O)SCCOP(=O)(OCCSC(=O)C(C)(C)C)C(F)(F)c1ccc2sc(C(=O)N[C@H]3CCC[C@H]4CC[C@@H](C(=O)NCc5cnc6[nH]cnc6c5)N4C3=O)cc2c1` [Compound 1002, S,S′-(((((2-(((3S,6S,9aS)-3-(((3H-imidazo[4,5-b]pyridin-6-yl)methyl)carbamoyl)-5-oxooctahydro-1H-pyrrolo[1,2-a]azepin-6-yl)carbamoyl)benzo [b]thiophen-5-yl)difluoromethyl)phosphoryl)bis(oxy))bis(ethane-2,1-diyl)) bis(2,2-dimethyl-propanethioate)] and `CC(C)(C)C(=O)SCCOP(=O)(OCCSC(=O)C(C)(C)C)C(F)(F)c1ccc2sc(C(=O)N[C@H]3CCCC[C@H]4CC[C@@H](C(=O)NCc5cnc6[nH]cnc6c5)N4C3=O)cc2c1` [Compound 1005, S,S′-(((((2-(((3S,6S,10aS)-3-(((3H-imidazo[4,5-b]pyridin-6-yl)methyl)carbamoyl)-5-oxodecahydropyrrolo [1,2-a]azocin-6-yl)carbamoyl)benzo [b]thiophen-5-yl)difluoromethyl)phosphoryl)bis(oxy))bis(ethane-2,1-diyl)) bis(2,2-dimethyl-propanethioate)] cannot be ordered by IC50: less than 100 nM for the first, less than 100 nM for the second.

Compared with `CCCCOC(=O)[C@@H]1CCCN1P(=O)(Cc1ccc2sc(C(=O)N[C@H]3CCC[C@H]4CC[C@@H](C(=O)N5CC(c6cccnc6)C5)N4C3=O)cc2c1)Oc1ccccc1` (stereo partly drawn) [Compound 1003, butyl (((2-(((3S,6S,9aS)-5-oxo-3-(3-(pyridin-3-yl)azetidine-1-carbonyl)octahydro-1H-pyrrolo[1,2-a]azepin-6-yl)carbamoyl)benzo [b]thiophen-5-yl)methyl)(phenoxy)phosphoryl)-L-prolinate], `O=C(Cc1ccccc1)SCCOP(=O)(OCCSC(=O)Cc1ccccc1)C(F)(F)c1ccc2sc(C(=O)N[C@H]3CCC[C@H]4CC[C@@H](C(=O)N5CC(c6cccnc6)C5)N4C3=O)cc2c1` [Compound 1006, S,S′-((((difluoro(2-(((3S,6S,9aS)-5-oxo-3-(3-(pyridin-3-yl)azetidine-1-carbonyl)octahydro-1H-pyrrolo[1,2-a]azepin-6-yl)carbamoyl)benzo [b]thiophen-5-yl)methyl)phosphoryl)bis(oxy))bis(ethane-2,1-diyl)) bis(2-phenylethanethioate)] is lower in IC50: 1000 to 3000 nM for the first, less than 100 nM for the second.

Compound `CN=S(C)(=O)CC1(OC)CN(C(=O)C2CCC3CCCC(NC(=O)c4cc5cc(C(F)(F)P(=O)(OCCSC(=O)C(C)(C)C)OCCSC(=O)C(C)(C)C)ccc5s4)C(=O)N32)C1` [Compound 1015, S,S′-(((((2-(((3S,6S,9aS)-3-(3-((N,S-dimethyl-sulfonimidoyl)methyl)-3-methoxyazetidine-1-carbonyl)-5-oxooctahydro-1H-pyrrolo[1,2-a]azepin-6-yl)carbamoyl)benzo [b]thiophen-5-yl)difluoromethyl)phosphoryl)bis(oxy))bis(ethane-2,1-diyl)) bis(2,2-dimethyl-propanethioate)] has an IC50 of less than 100 nM.

same assay, conditions: STAT3, PBMC, compound 3 hrs, then 10 ng/mL IL-6 for 10 min; Table 115

Compared with `CCCOC(=O)[C@H](C)NP(=O)(Cc1ccc2sc(C(=O)N[C@H]3CCC[C@H]4CC[C@@H](C(=O)N5CC(c6cnc(C(F)F)cc6OC)C5)N4C3=O)cc2c1)Oc1ccccc1` (stereo partly drawn) [Compound 991, propyl (((2-(((3S,6S,9aS)-3-(3-(6-(difluoromethyl)-4-methoxypyridin-3-yl)azetidine-1-carbonyl)-5-oxooctahydro-1H-pyrrolo[1,2-a]azepin-6-yl)carbamoyl)benzo [b]thiophen-5-yl)methyl)(phenoxy)phosphoryl)-L-alaninate], `CCCCOC(=O)[C@H](C)NP(=O)(Cc1ccc2sc(C(=O)N[C@H]3CCC[C@H]4CC[C@@H](C(=O)N5CC(c6cccnc6)C5)N4C3=O)cc2c1)Oc1cccc2ccccc12` (stereo partly drawn) [Compound 1004, butyl ((naphthalen-1-yloxy)((2-(((3S,6S,9aS)-5-oxo-3-(3-(pyridin-3-yl)azetidine-1-carbonyl)octahydro-1H-pyrrolo[1,2-a]azepin-6-yl)carbamoyl)benzo [b]thiophen-5-yl)methyl)phosphoryl)-L-alaninate] is lower in IC50: greater than 3000 nM for the first, 100 to 1000 nM for the second. The second is the more potent here.
